Test results published in patent publication US20050170966A1, “Surfactants and surfactant compositions” (priority 2002, published 2005).

Columns and labels:
Type in all cases: in vivo
[1] = test system: mixtures of weeds: Cockspur (Echinochloa crus-galli), Fat-hen (Chenopodium album), Smartweed (Polygonum persicaria); test: Field trial: adjuvant effect on Glyphosate herbicidal activity on mixed weed plots; conditions: glyphosate 1080 g(a.e.).ha^-1, adjuvant 540 g.ha^-1 (2:1)
Method: This Example tests the effect of adjuvants on Glyphosate herbicidal activity under field conditions. The herbicide was applied to test plots of weeds at a rate of 1080 g(a.e.).ha^−1 (350 l.ha^−1 of spray containing 3.086 g.l^−1 a.e.) with a weight ratio of active to adjuvant of 2:1=540 g(adjuvant).ha^−1. Spray plots were treated with the herbicide formulations, one of each of four adjuvants of the invention (SE1, SE2, SE3, and SE4) a fatty amine ethoxylate (FAE1) for comparison, or left untreated as controls (no weed control). The spray plots were in a completely randomised block design with 3 replicates of 3×5 m plots. the sprayed plots were sprayed using a compressed-air AZO sprayer at a pressure of 2.5 bar, equipped with Teejet XR80015VS nozzles. During this trial, it rained for about 15 minutes about 2 hours after spraying, giving a good indication of the rainfastness off the formulations tested.
The test plots used mixtures of the following weeds at the 2 to 4 leaf stage:
The results of spraying were evaluated by visual comparison with untreated control blocks 12, 20 and 35 days after treatment (DAT), assessing chlorosis (chlor) and growth inhibition (inhib) as percentages with 0=no effect and 100=complete kill as compared with the untreated controls.

[2] = test system: Abutilon theophrasti (velvetleaf); test: Adjuvants for Glyphosate, test plots, visual score
Method: (§1) In this Example the effect of compounds of the invention as adjuvants for Glyphosate as a herbicide against the species Agropyron repens (couch grass) and Abutilon theophrasti (velvetleaf) using FAE1 as a control adjuvant was tested. Test plots were treated by spraying (spray volume 200 l.ha^−1) at varying doses of glyphosate; 180 and 360 g(a.e.).ha^−1 for A. repens and 250 and 500 g(active).ha^−1 for A. theophrasti and ratios of glyphosate to adjuvant (8:1,4:1 and 2:1 by weight). The effect of the herbicide formulations was assessed by visual comparison with untreated control blocks 6, 13 and 19 days after treatment (DAT), scoring as percentages with 0=no effect and 100=complete kill. The results are set out in Table 2 below

[3] = test system: Agropyron repens (couch grass); test: Adjuvants for Glyphosate, test plots, visual score
Method: as §1

[4] = test system: Italian ryegrass; test: Field trial of glyphosate formulations with adjuvant; conditions: It R; 6 DAT; glyphosate 1080 g(a.e).ha^-1, adjuvant 405 g.ha^-1
Method: (§2) In this Example, adjuvants of the invention (SE2), plus TAE1 as control, were tested in field trials in formulations including glyphosate (isopropylamine salt) as a herbicide on flax, pea, Savoy cabbage (Sav C) and Italian ryegrass (It R) as target crops. The application rate was 1080 g(a.e).ha^−1, with adjuvant at an application rate of 405 g.ha^−1 (75% of the normal application rate for adjuvants in such formulations of 540 g.ha^−1). The effectiveness of the formulations was by visual assessment of Growth Reduction (Gr Red) and Chlorosis/Necrosis (Chlor) 6 DAT with the values being reported in % (related to an untreated control=0% effect).

[5] = test system: Savoy cabbage; test: as above; conditions: Sav C; 6 DAT; glyphosate 1080 g(a.e).ha^-1, adjuvant 405 g.ha^-1
Method: as §2

[6] = test system: flax; test: as above; conditions: 6 DAT, glyphosate 1080 g(a.e).ha^-1, adjuvant 405 g.ha^-1
Method: as §2

[7] = test system: pea; test: as above; conditions: 6 DAT, glyphosate 1080 g(a.e).ha^-1, adjuvant 405 g.ha^-1
Method: as §2

[8] = test system: Savoy cabbage; test: Field trial, lower glyphosate rate, varying adjuvant rate; conditions: Sav C, 14 DAT
Method: as §2, with “effect). Further field trial runs were carried out similar to Example AE4 on pea and Savoy cabbage as target crops at a lower application rate of glyphosate (570 g(a.e.).ha^−1) and using varying application rates for the adjuvant (135, 270 and 405 g.ha^−1) with the formulation components being mixed in the spray tank.” for “effect).”

[9] = test system: pea; test: as above; conditions: 14 DAT
Method: as §2, with “effect). Further field trial runs were carried out similar to Example AE4 on pea and Savoy cabbage as target crops at a lower application rate of glyphosate (570 g(a.e.).ha^−1) and using varying application rates for the adjuvant (135, 270 and 405 g.ha^−1) with the formulation components being mixed in the spray tank.” for “effect).”

[10] = glyphosate 570 g(a.e.).ha^-1, adjuvant 135 g/ha
[11] = glyphosate 570 g(a.e.).ha^-1, adjuvant 270 g/ha
[12] = glyphosate 570 g(a.e.).ha^-1, adjuvant 405 g/ha

Substance: 1-[Bis-(2-hydroxyethyl)-amino]-2-hydroxypropane-3-(Alc1 15-ethoxylate) [SE2]
- inhib (%) growth inhibition ([1]; 12 DAT): 70%
- chlor (%) chlorosis ([1]; 12 DAT, 0=no effect, 100=complete kill): 68%
- chlor (%) chlorosis ([1]; 20 DAT): 75%
- inhib (%) growth inhibition ([1]; 20 DAT): 75%
- chlor (%) chlorosis ([1]; 35 DAT): 77%
- inhib (%) growth inhibition ([1]; 35 DAT): 77%
- visual herbicide effect score ([2]; glyphosate 250 g.ha^-1, ratio 2:1, 6 DAT): 25%
- visual herbicide effect score ([2]; glyphosate 250 g.ha^-1, ratio 2:1, 13 DAT): 32.1%
- visual herbicide effect score ([2]; glyphosate 250 g.ha^-1, ratio 2:1, 19 DAT): 42.9%
- visual herbicide effect score ([2]; glyphosate 250 g.ha^-1, ratio 4:1, 6 DAT): 17.9%
- visual herbicide effect score ([2]; glyphosate 250 g.ha^-1, ratio 4:1, 13 DAT): 28.6%
- visual herbicide effect score ([2]; glyphosate 250 g.ha^-1, ratio 4:1, 19 DAT): 35.7%
- visual herbicide effect score ([2]; glyphosate 250 g.ha^-1, ratio 8:1, 6 DAT): 21.4%
- visual herbicide effect score ([2]; glyphosate 250 g.ha^-1, ratio 8:1, 13 DAT): 28.6%
- visual herbicide effect score ([2]; glyphosate 250 g.ha^-1, ratio 8:1, 19 DAT): 42.9%
- visual herbicide effect score ([2]; glyphosate 500 g.ha^-1, ratio 2:1, 6 DAT): 28.6%
- visual herbicide effect score ([2]; glyphosate 500 g.ha^-1, ratio 4:1, 6 DAT): 28.6%
- visual herbicide effect score ([2]; glyphosate 500 g.ha^-1, ratio 8:1, 6 DAT): 25%
- visual herbicide effect score ([2]; glyphosate 500 g.ha^-1, ratio 8:1, 13 DAT): 50%
- visual herbicide effect score ([2]; glyphosate 500 g.ha^-1, ratio 8:1, 19 DAT): 53.6%
- visual herbicide effect score ([3]; glyphosate 180 g.ha^-1, ratio 2:1, 6 DAT): 17.9%
- visual herbicide effect score ([3]; glyphosate 180 g.ha^-1, ratio 2:1, 13 DAT): 46.4%
- visual herbicide effect score ([3]; glyphosate 180 g.ha^-1, ratio 2:1, 19 DAT): 82.1%
- visual herbicide effect score ([3]; glyphosate 180 g.ha^-1, ratio 4:1, 6 DAT): 17.9%
- visual herbicide effect score ([3]; glyphosate 180 g.ha^-1, ratio 4:1, 13 DAT): 39.3%
- visual herbicide effect score ([3]; glyphosate 180 g.ha^-1, ratio 4:1, 19 DAT): 60%
- visual herbicide effect score ([3]; glyphosate 180 g.ha^-1, ratio 8:1, 6 DAT): 25%
- visual herbicide effect score ([3]; glyphosate 180 g.ha^-1, ratio 8:1, 13 DAT): 32.1%
- visual herbicide effect score ([3]; glyphosate 180 g.ha^-1, ratio 8:1, 19 DAT): 50%
- visual herbicide effect score ([3]; glyphosate 360 g.ha^-1, ratio 2:1, 6 DAT): 32.1%
- visual herbicide effect score ([3]; glyphosate 360 g.ha^-1, ratio 2:1, 13 DAT): 60.7%
- visual herbicide effect score ([3]; glyphosate 360 g.ha^-1, ratio 2:1, 19 DAT): 100%
- visual herbicide effect score ([3]; glyphosate 360 g.ha^-1, ratio 4:1, 6 DAT): 25%
- visual herbicide effect score ([3]; glyphosate 360 g.ha^-1, ratio 4:1, 13 DAT): 50%
- visual herbicide effect score ([3]; glyphosate 360 g.ha^-1, ratio 4:1, 19 DAT): 92.9%
- visual herbicide effect score ([3]; glyphosate 360 g.ha^-1, ratio 8:1, 6 DAT): 25%
- visual herbicide effect score ([3]; glyphosate 360 g.ha^-1, ratio 8:1, 13 DAT): 46.4%
- visual herbicide effect score ([3]; glyphosate 360 g.ha^-1, ratio 8:1, 19 DAT): 78.6%
- Chlor (%) Chlorosis/Necrosis [4]: 50%
- Chlor (%) Chlorosis/Necrosis [5]: 40%
- Chlor (%) Chlorosis/Necrosis [6]: 50%
- Gr Red (%) Growth Reduction [6]: 30%
- Chlor (%) Chlorosis/Necrosis [7]: 80%
- Gr Red (%) Growth Reduction [7]: 55%
- % necrosis [8, 10]: 40%
- % necrosis [8, 11]: 40%
- % necrosis [8, 12]: 60%
- % necrosis [9, 10]: 70%
- % necrosis [9, 11]: 90%
- % necrosis [9, 12]: 95%
